Active and inactive are the calls of the source. The calls are words filed in the database; no cut-off is given here.

The assay has as its system Plasmodium falciparum. The assay is described as follows: Antiplasmodial activity after 18 hrs against chloroquine-resistant Plasmodium falciparum FcB1 in human blood by [3H]hypoxanthine uptake. Type of assay: functional, organism-based.
For the compound `COc1cc(O)c([C@@H]2COc3cc(O)ccc3C2=O)cc1OC`, the outcome was inactive.
On the same count and under the same terms, then `COC1=CC(=O)C(O)=CC12CCCc1cc(O)ccc12` (stereo not drawn), with “inactive”.
As for `COc1cc(-c2coc3cc(O)ccc3c2=O)ccc1O`, the half-maximal inhibitory concentration (IC50) stood at 6.8 µM.
`COc1cc2c(cc1O)[C@@H](C)[C@H](c1ccccc1)O2` [OBTUSAFURAN] had an IC50 of 8.7 µM.
Turning to `O=C(/C=C/c1ccc(O)cc1)c1ccc(O)cc1O` [ISOLIQUIRITIGENIN], 7.8 µM corresponded to half-maximal inhibition (IC50).
Same read-out and setting: then `C=C[C@@H](C1=CC(=O)C(OC)=CC1=O)c1ccccc1`, with 5.8 µM.
On to `COc1cc(-c2cc3ccc(O)cc3oc2=O)c(O)cc1O`, for which the outcome was inactive.
`COc1cc(CCCc2cccc(O)c2)c(OC)cc1O`: the outcome was inactive.

Values taken from ChEMBL document CHEMBL1147246, “Flavonoids from Dalbergia louvelii and their antiplasmodial activity” (J Nat Prod, 2003).
